{
  "source": "patent US7211589B2",
  "about": "“Atisane compounds and use thereof” (Eisai R&D Management Co., Ltd., priority 2001, dated 2007)",
  "key": {"[1]": {"system": "cultured cerebral cortex cells", "assay": "Effect on nitrogen monoxide (NO)-induced neurotoxicity of cultured cerebral cortex cell (trypan blue survival)", "type": "cell-based", "settings": "test substance 10 μM simultaneously with S-nitrosocysteine 100 μM; percentage of living cells; sham 91.92, S-nitrosocysteine alone 17.30", "description": "Effect of Atisane Derivative on Nitrogen Monoxide (NO)-induced Neurotoxicity of Cultured Cerebral Cortex Cell\n(1) After dissolving the compound according to the present invention (test compound) in a small amount of methanol, 2.0 mL serum-free normal medium (Eagle's MEM medium raw powder 9.4 g; NaHCO3 2.0 g; […]; glucose 1.0 g; and HEPES 2.38 g are dissolved in purified water so that the final volume is 1000 mL) was added to make the concentration at 10 μM. After mixing well by vortex, the sample was used for the following bioassay. (2) In Eagle liquid at 37° C., cultured cerebral cortex cells were incubated in the medium containing S-nitrosocysteine for 1 hour. At this time, the test sample (1) was treated simultaneously with S-nitrosocysteine. After incubating for another 1 hour, the culture was stained with 1.5% trypan blue solution for 10 minutes. After completion of the staining, cells were fixed in ice-cooled 10% neutral-buffered formalin solution, rinsed with saline, and numbers of living cells and dead cells were counted. The test was conducted using 5 cover slips for every drug treatment, and one group contained 5 cases. More than 200 cells were counted per one cover slip, and a percentage of number of living cells with respect to the total number of counted cells was calculated as survival. (3) Results"}, "[2]": {"system": "cultured cerebral cortex cells", "assay": "Effect on glutamate-induced neurotoxicity of cultured cerebral cortex cell (trypan blue survival)", "type": "cell-based", "settings": "test substance 10 μM, 1 h pre-incubation, then glutamic acid 500 μM for 1 h; percentage of living (trypan blue unstained) cells; sham 88.79, glutamic acid alone 26.72", "description": "Effect of Atisane Derivative on Glutamate-induced Neurotoxicity of Cultured Cerebral Cortex Cell\nEffects of the compounds according to the present invention on survival of cells were studied in the following manners.\n(1) After dissolving the compound according to the present invention (test compound) in a small amount of methanol, 2.0 mL serum-free normal medium (Eagle's MEM medium raw powder 9.4 g; NaHCO3 2.0 g; L-glutamine 0.29 g; glucose 1.0 g; and HEPES 2.38 g are dissolved in purified water so that the final volume is 1000 mL) was added so as to make the concentration at 10 μM. After mixing well by vortex, the sample was used for the following bioassay. (2) In Eagle liquid at 37° C., cultured cerebral cortex cells were incubated in the medium containing the test sample (1) for 1 hour, and glutamic acid was added to the medium. After incubating for another 1 hour, the culture was stained with 1.5% trypan blue solution for 10 minutes. […] Using this property, in the present test, the number of cells were counted while determining the cells not having stained by trypan blue as living cells and the cells […] as dead cells. […] More than 200 cells were counted per one cover slip, and a percentage of number of living cells with respect to the total number of counted cells was calculated as survival. […]"}},
  "data": [
    {"smiles": "C[S+]([O-])C[C@H]1[C@H]2CC[C@@]3(CC[C@H]4[C@@](C)(CCC[C@@]4(C)C(=O)O)[C@@H]3C2)[C@@H]1O", "note": "(mixture of isomers) [Serofendic acid isomers (1), (2) (approx. 1:2) mixture, ent-15β-Hydroxy-17-methylsulfinyl-16α-atisane-19-oic acid]", "values": [
      {"measurement": "Survival of cell", "setting": "[1]", "result": 76.02, "unit": "%"},
      {"measurement": "Survival of cell", "setting": "[2]", "result": 65.92, "unit": "%"}
    ]}
  ]
}
